Experimental data from patent US10253002B2, “Compounds and methods of treating infections” (Neoculi Pty Ltd., priority 2013, dated 2019).
Values joined by “and” are separate entries in the source; they are usually repeats but may differ in a detail not shown here. Equal entries are not always repeated.

Columns and labels:
Experiment in all cases: Broth microdilution MIC, Example 7 (NCL812 and analogues)
Escherichia coli = assay type: cell-based; settings: 24 hours; 1st and 2nd replicate rows
VRE = assay type: cell-based, Enterococcus spp.; settings: for MIC (μg/ml) at 24 hours, VRE 1: isolate VRE 1; for MIC (μg/ml) at 24 hours, VRE 1 / MIC (μg/ml) at 24 hours, VRE 2: 1st and 2nd replicate rows; for MIC (μg/ml) at 24 hours, VRE 2: isolate VRE 2
Method: (§1) Minimum inhibitory concentrations (μg/ml) were determined using the broth microdilution method recommended by the Clinical and Laboratory Standards Institute (CLSI). MIC breakpoints were determined by visual assessment and then confirmed using an ELISA plate reader, measuring absorbance levels at 600 nm. Bacterial growth (turbidity) in the wells with antimicrobial was compared with the amount of growth (turbidity) in the growth-control well (containing no antimicrobial). All isolates were tested in duplicate, if there was a difference of greater than one two-fold dilution in the results, the test was repeated a third time. The purity of the isolates was closely monitored during testing by subculturing the prepared bacterial inoculum onto SBA (sheep blood agar). […] The MIC50, MIC20 and MIC range (minimum and maximum) were calculated for each of the bacterial groups.
(§2) MICs were determined against two MRSA strains, two VRE strains and one strain each of E. coli and Pseudomonas aeruginosa.

MRSA = assay type: cell-based, Staphylococcus aureus; settings: 24 hours, 1st and 2nd replicate rows; for MIC (μg/ml) at 24 hours, MRSA 1: isolate MRSA 1; for MIC (μg/ml) at 24 hours, MRSA 2: isolate MRSA 2
Method: as §1, §2

Pseudomonas aeruginosa = assay type: cell-based; settings: 24 hours; 1st and 2nd replicate rows

Row | SMILES | MIC (μg/ml) at 24 hours, E. coli (Escherichia coli) [µg/mL] | MIC (μg/ml) at 24 hours, VRE 1 (VRE) | MIC (μg/ml) at 24 hours, VRE 2 (VRE) [µg/mL] | MIC (μg/ml) at 24 hours, MRSA 1 (MRSA) [µg/mL] | MIC (μg/ml) at 24 hours, MRSA 2 (MRSA) [µg/mL] | MIC (μg/ml) at 24 hours, P. aeruginosa (Pseudomonas aeruginosa) [µg/mL] | activity against VRE among analogues (VRE; MIC testing, two VRE strains)
1 | Cl.N#Cc1ccc(/C=N/NC(=N)N)cc1 [NCL031] | >128 | >128 µg/mL | >128 | >128 | >128 | >128 | –
2 | Cl.N#Cc1ccccc1/C=N/NC(=N)N [NCL032] | >128 | >128 µg/mL | >128 | >128 | >128 | >128 | –
3 | Cl.N#Cc1cccc(/C=N/NC(=N)N)c1 [NCL033] | >128 | >128 µg/mL | >128 | >128 | >128 | >128 | –
4 | COc1ccccc1/C=N/NC(=N)N.Cl [NCL034] | >128 | >128 µg/mL | >128 | >128 | >128 | >128 | –
5 | Cl.N=C(N/N=C/c1ccccc1C(F)(F)F)N/N=C/c1ccccc1C(F)(F)F [NCL036] | >128 | >128 µg/mL | >128 | >128 | >128 | >128 | –
6 | Cl.N=C(NN=Cc1cccc(C(F)(F)F)c1)NN=Cc1cccc(C(F)(F)F)c1 [NCL037] | >128 | >126 µg/mL and >128 µg/mL | >128 | >128 | >128 | >128 | –
7 | Cl.N=C(N)N/N=C/c1ccccc1C(F)(F)F [NCL042] | >128 | >128 µg/mL | >128 | >128 | >128 | >128 | –
8 | Cc1ccccc1/C=N/NC(=N)N.Cl [NCL045] | >128 | >128 µg/mL | >128 | >128 | >128 | >128 | –
9 | Cc1cccc(/C=N/NC(=N)N)c1.Cl [NCL046] | >128 | >128 µg/mL | >128 | >128 | >128 | >128 | –
10 | NC(=O)N/N=C/c1ccccc1Cl [NCL047] | >128 | >128 µg/mL | >128 | >128 | >128 | >128 | –
11 | NC(=O)N/N=C/c1ccccc1F [NCL048] | >128 | >128 µg/mL | >128 | >128 | >128 | >128 | –
12 | N#Cc1ccc(/C=N/NC(N)=O)cc1 [NCL049] | >128 | >128 µg/mL | >128 | >128 | >128 | >128 | –
13 | N#Cc1ccccc1/C=N/NC(N)=O [NCL050] | >128 | >128 µg/mL | >128 | >128 | >128 | >128 | –
14 | N#Cc1cccc(/C=N/NC(N)=O)c1 [NCL051] | >128 | >128 µg/mL | >128 | >128 | >128 | >128 | –
15 | NC(=O)N/N=C/c1cccc(Cl)c1 [NCL055] | >128 | >128 µg/mL | >128 | >128 | >128 | >128 | –
16 | NC(=O)N/N=C/c1ccc(F)cc1 [NCL056] | >128 | >128 µg/mL | >128 | >128 | >128 | >128 | –
17 | NC(=O)N/N=C/c1cccc(F)c1 [NCL057] | >128 | >128 µg/mL | >128 | >128 | >128 | >128 | –
18 | COc1ccc(/C=N/NC(N)=O)cc1 [NCL058] | >128 | >128 µg/mL | >128 | >128 | >128 | >128 | –
19 | COc1cccc(/C=N/NC(N)=O)c1 [NCL059] | >128 | >128 µg/mL | >128 | >128 | >128 | >128 | –
20 | NC(=O)N/N=C/c1ccccc1C(F)(F)F [NCL060] | >128 | >128 µg/mL | >128 | >128 | >128 | >128 | –
21 | CC(=NNC(=N)NN=C(C)c1ccc(C(F)(F)F)cc1)c1ccc(C(F)(F)F)cc1.Cl [NCL061] | >128 | >128 µg/mL | 8 | >128 | >128 | >128 | greatest activity
22 | FC(F)(F)c1ccc(C=NNC(=S)NN=Cc2ccc(C(F)(F)F)cc2)cc1 [NCL063] | >128 | >128 µg/mL | >128 | >128 | >128 | >128 | –
